{
  "source": "patent EP1285919A1",
  "about": "“C10 Carbonate substituted taxanes as antitumor agents” (Florida State University Research Foundation, Inc., priority 2001, dated 2003)",
  "system": "HCT116",
  "assay": "In vitro cytotoxicity, cell colony formation assay",
  "format": "cell-based",
  "conditions": "HCT116; 72 h with drug, colonies counted after 7 days; concentration producing 50% inhibition of colony formation; read-out: IN VITRO ID 50",
  "method": "In Vitro cytotoxicity measured by the cell colony formation assay\nFour hundred cells (HCT116) were plated in 60 mm Petri dishes containing 2.7 mL of medium (modified McCoy's 5a medium containing 10% fetal bovine serum and 100 units/mL penicillin and […] streptomycin). The cells were incubated in a CO2 incubator at 37 °C for 5 h for attachment to the bottom of Petri dishes. The compounds identified in Example 2 were made up fresh in medium at ten times the final concentration, and then 0.3 mL of this stock solution was added to the 2.7 mL of medium in the dish. The cells were then incubated with drugs for 72 h at 37 ° C. At the end of incubation the drug-containing media were decanted, the dishes were rinsed with 4 mL of Hank's Balance Salt Solution (HBSS), 5 mL of fresh medium was added, and the dishes were returned to the incubator for colony formation. The cell colonies were counted using a colony counter after incubation for 7 days.",
  "note": "pIC50: −log10 of the molar value.",
  "data": [
    {"smiles": "CCOC(=O)OC1C(=O)C2(C)C(O)CC3OCC3(OC(C)=O)C2C(OC(=O)c2ccccc2)C2(O)CC(OC(=O)C(O)C(C=C(C)C)NC(=O)OC(C)(C)C)C(C)=C1C2(C)C", "note": "(stereo not drawn) [Compound 1788]", "values": [
      {"measurement": "pIC50", "value": "> 9.00"}
    ]},
    {"smiles": "CCOC(=O)OC1C(=O)C2(C)C(O)CC3OCC3(OC(C)=O)C2C(OC(=O)c2ccccc2)C2(O)CC(OC(=O)C(O)C(NC(=O)OC(C)(C)C)c3ccccn3)C(C)=C1C2(C)C", "note": "(stereo not drawn) [Compound 1799]", "values": [
      {"measurement": "pIC50", "value": "> 9.00"}
    ]},
    {"smiles": "CCOC(=O)OC1C(=O)C2(C)C(O)CC3OCC3(OC(C)=O)C2C(OC(=O)c2ccccc2)C2(O)CC(OC(=O)C(O)C(NC(=O)OC(C)(C)C)c3cccnc3)C(C)=C1C2(C)C", "note": "(stereo not drawn) [Compound 1808]", "values": [
      {"measurement": "pIC50", "value": "> 8.00"}
    ]},
    {"smiles": "CCOC(=O)OC1C(=O)C2(C)C(O)CC3OCC3(OC(C)=O)C2C(OC(=O)c2ccccc2)C2(O)CC(OC(=O)C(O)C(NC(=O)OC(C)(C)C)c3ccncc3)C(C)=C1C2(C)C", "note": "(stereo not drawn) [Compound 1811]", "values": [
      {"measurement": "pIC50", "value": "> 9.00"}
    ]},
    {"smiles": "CCOC(=O)OC1C(=O)C2(C)C(O)CC3OCC3(OC(C)=O)C2C(OC(=O)c2ccccc2)C2(O)CC(OC(=O)C(O)C(NC(=O)OC(C)(C)C)c3ccco3)C(C)=C1C2(C)C", "note": "(stereo not drawn) [Compound 1822]", "values": [
      {"measurement": "pIC50", "value": "> 9.00"}
    ]},
    {"smiles": "CCOC(=O)OC1C(=O)C2(C)C(O)CC3OCC3(OC(C)=O)C2C(OC(=O)c2ccccc2)C2(O)CC(OC(=O)C(O)C(NC(=O)OC(C)(C)C)c3ccsc3)C(C)=C1C2(C)C", "note": "(stereo not drawn) [Compound 1841]", "values": [
      {"measurement": "pIC50", "value": "> 9.00"}
    ]},
    {"smiles": "CCOC(=O)OC1C(=O)C2(C)C(O)CC3OCC3(OC(C)=O)C2C(OC(=O)c2ccccc2)C2(O)CC(OC(=O)C(O)C(NC(=O)OC(C)(C)C)C3CCC3)C(C)=C1C2(C)C", "note": "(stereo not drawn) [Compound 1855]", "values": [
      {"measurement": "pIC50", "value": "> 8.00"}
    ]},
    {"smiles": "CCOC(=O)OC1C(=O)C2(C)C(O)CC3OCC3(OC(C)=O)C2C(OC(=O)c2ccccc2)C2(O)CC(OC(=O)C(O)C(NC(=O)OC(C)(C)C)c3ccc([N+](=O)[O-])cc3)C(C)=C1C2(C)C", "note": "(stereo not drawn) [Compound 1866]", "values": [
      {"measurement": "pIC50", "value": "> 9.00"}
    ]},
    {"smiles": "COC(=O)OC1C(=O)C2(C)C(O)CC3OCC3(OC(C)=O)C2C(OC(=O)c2ccccc2)C2(O)CC(OC(=O)C(O)C(C=C(C)C)NC(=O)OC(C)(C)C)C(C)=C1C2(C)C", "note": "(stereo not drawn) [Compound 1999]", "values": [
      {"measurement": "pIC50", "value": "> 9.00"}
    ]},
    {"smiles": "COC(=O)OC1C(=O)C2(C)C(O)CC3OCC3(OC(C)=O)C2C(OC(=O)c2ccccc2)C2(O)CC(OC(=O)C(O)C(NC(=O)OC(C)(C)C)c3ccccn3)C(C)=C1C2(C)C", "note": "(stereo not drawn) [Compound 2002]", "values": [
      {"measurement": "pIC50", "value": "> 9.00"}
    ]},
    {"smiles": "COC(=O)OC1C(=O)C2(C)C(O)CC3OCC3(OC(C)=O)C2C(OC(=O)c2ccccc2)C2(O)CC(OC(=O)C(O)C(NC(=O)OC(C)(C)C)c3cccnc3)C(C)=C1C2(C)C", "note": "(stereo not drawn) [Compound 2011]", "values": [
      {"measurement": "pIC50", "value": "> 8.00"}
    ]},
    {"smiles": "COC(=O)OC1C(=O)C2(C)C(O)CC3OCC3(OC(C)=O)C2C(OC(=O)c2ccccc2)C2(O)CC(OC(=O)C(O)C(NC(=O)OC(C)(C)C)c3ccncc3)C(C)=C1C2(C)C", "note": "(stereo not drawn) [Compound 2020]", "values": [
      {"measurement": "pIC50", "value": "> 9.00"}
    ]},
    {"smiles": "COC(=O)OC1C(=O)C2(C)C(O)CC3OCC3(OC(C)=O)C2C(OC(=O)c2ccccc2)C2(O)CC(OC(=O)C(O)C(NC(=O)OC(C)(C)C)c3cccs3)C(C)=C1C2(C)C", "note": "(stereo not drawn) [Compound 2044]", "values": [
      {"measurement": "pIC50", "value": "> 9.00"}
    ]},
    {"smiles": "COC(=O)OC1C(=O)C2(C)C(O)CC3OCC3(OC(C)=O)C2C(OC(=O)c2ccccc2)C2(O)CC(OC(=O)C(O)C(NC(=O)OC(C)(C)C)c3ccsc3)C(C)=C1C2(C)C", "note": "(stereo not drawn) [Compound 2050]", "values": [
      {"measurement": "pIC50", "value": "> 9.00"}
    ]},
    {"smiles": "COC(=O)OC1C(=O)C2(C)C(O)CC3OCC3(OC(C)=O)C2C(OC(=O)c2ccccc2)C2(O)CC(OC(=O)C(O)C(NC(=O)OC(C)(C)C)C(C)C)C(C)=C1C2(C)C", "note": "(stereo not drawn) [Compound 2062]", "values": [
      {"measurement": "pIC50", "value": "> 8.00"}
    ]},
    {"smiles": "COC(=O)OC1C(=O)C2(C)C(O)CC3OCC3(OC(C)=O)C2C(OC(=O)c2ccccc2)C2(O)CC(OC(=O)C(O)C(NC(=O)OC(C)(C)C)C3CCC3)C(C)=C1C2(C)C", "note": "(stereo not drawn) [Compound 2077]", "values": [
      {"measurement": "pIC50", "value": "> 8.00"}
    ]},
    {"smiles": "COC(=O)OC1C(=O)C2(C)C(O)CC3OCC3(OC(C)=O)C2C(OC(=O)c2ccccc2)C2(O)CC(OC(=O)C(O)C(NC(=O)OC(C)(C)C)c3ccc([N+](=O)[O-])cc3)C(C)=C1C2(C)C", "note": "(stereo not drawn) [Compound 2088]", "values": [
      {"measurement": "pIC50", "value": "> 9.00"}
    ]},
    {"smiles": "COC(=O)OC1C(=O)C2(C)C(O)CC3OCC3(OC(C)=O)C2C(OC(=O)c2ccccc2)C2(O)CC(OC(=O)C(O)C(NC(=O)OC(C)(C)C)c3ccccc3)C(C)=C1C2(C)C", "note": "(stereo not drawn) [Compound 2092]", "values": [
      {"measurement": "pIC50", "value": "> 9.00"}
    ]},
    {"smiles": "CCOC(=O)OC1C(=O)C2(C)C(O)CC3OCC3(OC(C)=O)C2C(OC(=O)c2ccccc2)C2(O)CC(OC(=O)C(O)C(NC(=O)c3ccccc3)c3cccs3)C(C)=C1C2(C)C", "note": "(stereo not drawn) [Compound 2972]", "values": [
      {"measurement": "pIC50", "value": "> 8.00"}
    ]},
    {"smiles": "CCOC(=O)OC1C(=O)C2(C)C(O)CC3OCC3(OC(C)=O)C2C(OC(=O)c2ccccc2)C2(O)CC(OC(=O)C(O)C(NC(=O)OC(C)C)c3cccs3)C(C)=C1C2(C)C", "note": "(stereo not drawn) [Compound 2999]", "values": [
      {"measurement": "pIC50", "value": "> 9.00"}
    ]},
    {"smiles": "CCOC(=O)OC1C(=O)C2(C)C(O)CC3OCC3(OC(C)=O)C2C(OC(=O)c2ccccc2)C2(O)CC(OC(=O)C(O)C(NC(=O)OCC(C)C)c3cccs3)C(C)=C1C2(C)C", "note": "(stereo not drawn) [Compound 3003]", "values": [
      {"measurement": "pIC50", "value": "> 8.00"}
    ]},
    {"smiles": "CCOC(=O)OC1C(=O)C2(C)C(O)CC3OCC3(OC(C)=O)C2C(OC(=O)c2ccccc2)C2(O)CC(OC(=O)C(O)C(NC(=O)c3ccco3)c3cccs3)C(C)=C1C2(C)C", "note": "(stereo not drawn) [Compound 3011]", "values": [
      {"measurement": "pIC50", "value": "> 9.00"}
    ]},
    {"smiles": "CCOC(=O)OC1C(=O)C2(C)C(O)CC3OCC3(OC(C)=O)C2C(OC(=O)c2ccccc2)C2(O)CC(OC(=O)C(O)C(NC(=O)c3cccs3)c3cccs3)C(C)=C1C2(C)C", "note": "(stereo not drawn) [Compound 3020]", "values": [
      {"measurement": "pIC50", "value": "> 9.00"}
    ]},
    {"smiles": "CCCC(=O)NC(c1cccs1)C(O)C(=O)OC1CC2(O)C(OC(=O)c3ccccc3)C3C4(OC(C)=O)COC4CC(O)C3(C)C(=O)C(OC(=O)OCC)C(=C1C)C2(C)C", "note": "(stereo not drawn) [Compound 3155]", "values": [
      {"measurement": "pIC50", "value": "> 9.00"}
    ]},
    {"smiles": "CCOC(=O)OC1C(=O)C2(C)C(O)CC3OCC3(OC(C)=O)C2C(OC(=O)c2ccccc2)C2(O)CC(OC(=O)C(O)C(NC(=O)OCC(C)C)c3ccco3)C(C)=C1C2(C)C", "note": "(stereo not drawn) [Compound 3181]", "values": [
      {"measurement": "pIC50", "value": "> 9.00"}
    ]},
    {"smiles": "CCOC(=O)OC1C(=O)C2(C)C(O)CC3OCC3(OC(C)=O)C2C(OC(=O)c2ccccc2)C2(O)CC(OC(=O)C(O)C(NC(=O)c3cccnc3)c3cccs3)C(C)=C1C2(C)C", "note": "(stereo not drawn) [Compound 3300]", "values": [
      {"measurement": "pIC50", "value": "> 8.00"}
    ]},
    {"smiles": "CCOC(=O)OC1C(=O)C2(C)C(O)CC3OCC3(OC(C)=O)C2C(OC(=O)c2ccccc2)C2(O)CC(OC(=O)C(O)C(NC(=O)c3ccccn3)c3cccs3)C(C)=C1C2(C)C", "note": "(stereo not drawn) [Compound 3433]", "values": [
      {"measurement": "pIC50", "value": 7.65}
    ]},
    {"smiles": "CCCC(=O)NC(c1ccco1)C(O)C(=O)OC1CC2(O)C(OC(=O)c3ccccc3)C3C4(OC(C)=O)COC4CC(O)C3(C)C(=O)C(OC(=O)OCC)C(=C1C)C2(C)C", "note": "(stereo not drawn) [Compound 3929]", "values": [
      {"measurement": "pIC50", "value": "> 9.00"}
    ]},
    {"smiles": "CCOC(=O)OC1C(=O)C2(C)C(O)CC3OCC3(OC(C)=O)C2C(OC(=O)c2ccccc2)C2(O)CC(OC(=O)C(O)C(NC(=O)OC(C)C)c3ccco3)C(C)=C1C2(C)C", "note": "(stereo not drawn) [Compound 3963]", "values": [
      {"measurement": "pIC50", "value": "> 9.00"}
    ]},
    {"smiles": "CC=CC(=O)NC(c1ccco1)C(O)C(=O)OC1CC2(O)C(OC(=O)c3ccccc3)C3C4(OC(C)=O)COC4CC(O)C3(C)C(=O)C(OC(=O)OCC)C(=C1C)C2(C)C", "note": "(stereo not drawn) [Compound 4000]", "values": [
      {"measurement": "pIC50", "value": "> 9.00"}
    ]},
    {"smiles": "CCOC(=O)OC1C(=O)C2(C)C(O)CC3OCC3(OC(C)=O)C2C(OC(=O)c2ccccc2)C2(O)CC(OC(=O)C(O)C(NC(=O)c3cccs3)c3ccco3)C(C)=C1C2(C)C", "note": "(stereo not drawn) [Compound 4088]", "values": [
      {"measurement": "pIC50", "value": "> 8.00"}
    ]},
    {"smiles": "CCOC(=O)OC1C(=O)C2(C)C(O)CC3OCC3(OC(C)=O)C2C(OC(=O)c2ccccc2)C2(O)CC(OC(=O)C(O)C(NC(=O)c3ccccc3)c3ccco3)C(C)=C1C2(C)C", "note": "(stereo not drawn) [Compound 4090]", "values": [
      {"measurement": "pIC50", "value": "> 9.00"}
    ]},
    {"smiles": "CCOC(=O)OC1C(=O)C2(C)C(O)CC3OCC3(OC(C)=O)C2C(OC(=O)c2ccccc2)C2(O)CC(OC(=O)C(O)C(C=C(C)C)NC(=O)OCC(C)C)C(C)=C1C2(C)C", "note": "(stereo not drawn) [Compound 5155]", "values": [
      {"measurement": "pIC50", "value": "> 8.00"}
    ]}
  ]
}
